Results taken from patent EP0009325A1, “Erythritol cointaining anti-caries compositions” (PFIZER INC., priority 1978, dated 1980).
Like-named read-outs stand apart in the source and are kept apart here.

Columns and labels:
[1] = tested on: Streptococcus mutans strain GS-5; experiment: Growth of S. mutans GS-5 in nutrient medium (Klett optical density, doubling time, final pH); assay type: cell-based; conditions: 0.7% concentration; 37°C; columns 1-3 of Table I
Method: (§1) All compounds used in the test were in 0.7% concentration. The same concentrations were used to determine acid production in a salivary system. Streptococcus mutans strain GS-5, a human cariogenic strain, was used in all cases except the salivary test system in which the endogenous flora was used.
Klett tubes containing a tryticase-soy-yeast- cysteine nutrient and fitted with septum caps werg flushed with nitrogen gas and preincubated 30 minutes at 37°C using standard sterile technicuies, then in- noculated with a 2% innoculum of a suspension of S. mutans GS-5 cells in phosphate buffer. These were then incubated at 37°C. Optical density was measured by Klett readings (red filter) at half hour intervals.
The first three columns in the table refer to effects of the compounds on the growth characteristics of a cariogenic strain of the bacteria Streptococcus mutans. Reduction of total growth (lowered final Klett), reduction of growth rate (increase in doubling time) and reduction of acid produced (increase in final pH) are the effects desired.

[2] = tested on: dextran-sucrase (DSU); experiment: Dextran-sucrase (DSU) activity of S. mutans; assay type: cell-based, Streptococcus mutans; conditions: 0.7% concentration; for dextran-sucrase (DSU) activity: columns 4-8 of Table I
Source text: as §1
The next six columns refer to certain effects on the metabolism of the bacteria. Columns 4-8 represent measures of the activity of an enzyme (or group of enzymes) called dextran-sucrase (DSU) which is one of the principle sources of the cariogenicity of this organism. DSU converts dietary sugar into polymers which are a major ingredient of cariogenic dental plaque. Such plaque is an accumulation of these polymers, playing an essential role in caries formation and periodontal disease. Therefore, a reduction in plaque formation by means of a reduction'in DSU activity is a desired effect. In particular, a reduction in "mean specific DSU activity" - that is, amount of activity per bacterial cell - is desired since that would imply a real effect on the organisms' metabolism instead of merely a reduction in the number of cells. […] Erythritol, however, is the best in the critical measure "DSU mean specific activity (column 8). In column 9, lactic acid production is measured. Lactic acid, produced by cariogenic bacteria in response to ingestion of a meal, can increase acidity enough to dissolve tooth mineral and initiate caries. Therefore, reduction in lactic acid production is desirable. […] Finally, in the last column (10) are measures of the effect on the pH of natural saliva. In this case, the natural mixed population of bacteria is used instead of a pure culture of one strain as in the previous columns. A positive number (pH increase, corresponding to reduced acidity) is the desired result.

[3] = tested on: Streptococcus mutans strain GS-5; experiment: Lactic acid production (Sigma kit, NADH absorbance); assay type: cell-based; conditions: 0.7% concentration; relative to "no compound" control; column 9 of Table I
Method: as §1
Lactic acid production was measured using the Sigma Kit for determination of lactic acid. This procedure measures the amount of lactic acid by the following reaction: [drawing 1] NAD is originally present-in excess and the increase absorbance of […] due to NADH formation becomes a measure of lactic acid originally present.
(§2) The next six columns refer to certain effects on the metabolism of the bacteria. Columns 4-8 represent measures of the activity of an enzyme (or group of enzymes) called dextran-sucrase (DSU) which is one of the principle sources of the cariogenicity of this organism. DSU converts dietary sugar into polymers which are a major ingredient of cariogenic dental plaque. Such plaque is an accumulation of these polymers, playing an essential role in caries formation and periodontal disease. Therefore, a reduction in plaque formation by means of a reduction'in DSU activity is a desired effect. […] In column 9, lactic acid production is measured. […]

[4] = tested on: endogenous flora; experiment: Salivary test system: pH change of pooled saliva; assay type: cell-based, human saliva; conditions: final concentration 0.7%; anaerobic, 37°C, four hours; column 10 of Table I
Method: as §1
For the salivary test system, saliva was pooled from volunteers who had fasted three hours and the pH of the pooled saliva was noted. 4.95 ml of pool saliva was aseptically transferred to a series of sterile test tubes. […] of each compound were prepared and sterilized. 0.05 ml of each was aseptically added to the test tube of saliva to give a final concentration of 0.7%. The test tubes were incubated anaerobically ! at 37°C for four hours. The pH of each was then measured.
as §2, with “disease.” for “disease. Therefore, a reduction in plaque formation by means of a reduction'in DSU activity is a desired effect.”

[5] = cited from earlier work
[6] = humans; cited from earlier work
[7] = tested on: enzymes responsible for dental caries formation; conditions: cited from earlier work
[8] = cited from earlier work; remark: listed apart in the source
[9] = tested on: dental caries; conditions: cited from earlier work
[10] = tested on: dental caries; conditions: compared with mannitol or sorbitol; cited from earlier work
[11] = tested on: dental caries; conditions: in diet, man; cited from earlier work

| Compound | growth characteristics: total growth (final Klett), growth rate (doubling time), acid produced (final pH) [1] | DSU mean specific activity ([2]; activity per bacterial cell, column 8 of Table I) | dextran-sucrase (DSU) activity [2] | lactic acid production [3] | effect on the pH of natural saliva [4] | saturated solution in water [5] | metabolism after oral ingestion [6] | formation of enzymes responsible for dental caries formation [7] | diarrhea ([8]; rat, in vivo) | drinking water intake ([9]; rat, in vivo) | reducing the incidence of dental caries [10] | incidence of dental caries [11] | diarrhea ([8]; rats) | drinking water intake ([9]; rats) | preventing dental caries ([9]; rats) |
| --- | --- | --- | --- | --- | --- | --- | --- | --- | --- | --- | --- | --- | --- | --- | --- |
| OC[C@@H](O)[C@@H](O)CO [erythritol] | closely following | the best | superior to the other substances tested | only substance which reduced lactic acid | best substance in the test | about 38 % w/w | not significantly metabolized | – | – | – | – | – | – | – | – |
| OC[C@@H](O)[C@@H](O)[C@H](O)[C@H](O)CO [mannitol] | – | – | – | – | – | – | – | retarded | – | – | – | – | – | – | – |
| OC[C@@H](O)[C@@H](O)[C@H](O)[C@@H](O)CO [sorbitol] | – | – | – | – | – | – | – | retarded | caused diarrhea | increased drinking water intake | – | – | – | – | – |
| OC[C@@H](O)[C@H](O)[C@@H](O)CO [xylitol] | best results | – | superior to the other substances tested | superior to the other test substances | superior to the other test substances | – | – | retarded | – | – | appreciably more effective | dramatic reduction in the incidence of dental caries | caused diarrhea | increased drinking water intake | more effective than sorbitol |
